Measurements from the NIST ThermoML archive (doi:10.1016/j.tca.2011.11.009).

Conditions: Liquid, Vibrating tube method

CCCCn1cc[n+](C)c1.N#C[S-] [1-butyl-3-methylimidazolium thiocyanate]
mass density [kg/m3]
Conditions | 298.15 K | 308.15 K | 318.15 K | 328.15 K | 338.15 K
100 kPa | 1070.18 | 1063.9 | 1058.33 | 1052.54 | 1046.94
200 kPa | 1070.23 | 1063.94 | 1058.37 | 1052.59 | 1047.03
300 kPa | 1070.25 | 1064.03 | 1058.41 | 1052.62 | 1047.05
400 kPa | 1070.29 | 1064.09 | 1058.45 | 1052.69 | 1047.1
500 kPa | 1070.32 | 1064.13 | 1058.5 | 1052.69 | 1047.14
600 kPa | 1070.36 | 1064.18 | 1058.54 | 1052.75 | 1047.17
800 kPa | 1070.43 | 1064.29 | 1058.61 | 1052.82 | 1047.27
1000 kPa | 1070.5 | 1064.35 | 1058.68 | 1052.94 | 1047.33
2000 kPa | 1070.88 | 1064.73 | 1059.07 | 1053.31 | 1047.74
4000 kPa | 1071.63 | 1065.48 | 1059.88 | 1054.11 | 1048.56
6000 kPa | 1072.37 | 1066.26 | 1060.63 | 1054.91 | 1049.39
8000 kPa | 1073.11 | 1067.02 | 1061.43 | 1055.68 | 1050.19
10000 kPa | 1073.83 | 1067.77 | 1062.18 | 1056.48 | 1050.99

CCCC[n+]1ccc(C)cc1.N#C[S-] [1-butyl-4-methylpyridinium thiocyanate]
mass density [kg/m3]
Conditions | 298.15 K | 308.15 K | 318.15 K | 328.15 K | 338.15 K
100 kPa | 1061.57 | 1055.36 | 1049.83 | 1044.2 | 1037.12
200 kPa | 1061.61 | 1055.39 | 1049.88 | 1044.23 | 1037.15
300 kPa | 1061.64 | 1055.43 | 1049.93 | 1044.29 | 1037.18
400 kPa | 1061.66 | 1055.48 | 1049.96 | 1044.33 | 1037.18
500 kPa | 1061.7 | 1055.53 | 1050.03 | 1044.34 | 1037.24
600 kPa | 1061.74 | 1055.59 | 1050.06 | 1044.41 | 1037.29
800 kPa | 1061.81 | 1055.69 | 1050.13 | 1044.45 | 1037.35
1000 kPa | 1061.88 | 1055.77 | 1050.2 | 1044.55 | 1037.43
2000 kPa | 1062.24 | 1056.11 | 1050.6 | 1044.93 | 1037.83
4000 kPa | 1062.95 | 1056.86 | 1051.37 | 1045.71 | 1038.61
6000 kPa | 1063.68 | 1057.62 | 1052.12 | 1046.49 | 1039.4
8000 kPa | 1064.4 | 1058.35 | 1052.88 | 1047.26 | 1040.18
10000 kPa | 1065.1 | 1059.08 | 1053.61 | 1048.01 | 1040.98

CCn1cc[n+](C)c1.N#C[S-] [1-ethyl-3-methylimidazolium thiocyanate]
mass density [kg/m3]
Conditions | 298.15 K | 308.15 K | 318.15 K | 328.15 K | 338.15 K
100 kPa | 1116.69 | 1110.39 | 1104.8 | 1098.18 | 1092.87
200 kPa | 1116.71 | 1110.42 | 1104.83 | 1098.22 | 1092.93
300 kPa | 1116.72 | 1110.47 | 1104.87 | 1098.27 | 1092.97
400 kPa | 1116.77 | 1110.5 | 1104.91 | 1098.31 | 1093
500 kPa | 1116.82 | 1110.54 | 1104.97 | 1098.32 | 1093.05
600 kPa | 1116.86 | 1110.59 | 1105 | 1098.38 | 1093.11
800 kPa | 1116.92 | 1110.68 | 1105.04 | 1098.43 | 1093.18
1000 kPa | 1117 | 1110.74 | 1105.13 | 1098.54 | 1093.24
2000 kPa | 1117.35 | 1111.1 | 1105.5 | 1098.87 | 1093.64
4000 kPa | 1118.04 | 1111.81 | 1106.24 | 1099.64 | 1094.38
6000 kPa | 1118.74 | 1112.53 | 1106.96 | 1100.38 | 1095.15
8000 kPa | 1119.43 | 1113.24 | 1107.68 | 1101.1 | 1095.91
10000 kPa | 1120.11 | 1113.94 | 1108.39 | 1101.83 | 1096.65
